In one test the target is T1, Bcl-2 protein (histag-Bcl-2, UniProtKB P10415) (Homo sapiens, UniProt P10415).
T1 construct: His tag
As to the kind of experiment: Inhibition of Bcl-2 by the fluorescence polarisation technique. Type of test: binding. As to conditions: for IC50: fluorescence polarisation, 2 hours incubation, read-out: IC50 (nM) Bcl-2 FP; for percentage fluorescence polarisation inhibition (partial inhibitors), Bcl-2 FP: @ 10 μM test compound. In a few lines: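 Fluorescence polarisation competition: His-tagged human Bcl-2 (2.50×10^−8 M final) was mixed with fluorescein-labelled peptide (1.00×10^−8 M final) and increasing compound concentrations. Buffer was 10 mM Hepes, 150 mM NaCl, 0.05% Tween20, pH 7.4. Polarisation was read after 2 h.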
(In fluorescence polarisation assays a small probe gives low polarisation when free and higher when bound to something large.)

Test [1] deals with RS4;11 leukaemia tumour line. The test is described as follows: In vitro cytotoxicity (MTT) on RS4;11. Type of test: cell-based. To be noted: RS4;11 cells, 48 hours exposure. The protocol:
The cytotoxicity studies were carried out on the RS4;11 leukaemia tumour line.
The cells are distributed onto microplates and exposed to the test compounds for 48 hours.
The cell viability is then quantified by a colorimetric assay, the Microculture Tetrazolium Assay (Cancer Res., 1987, 47, 939-942).

Structures can show the parent of a compound that is named as a salt.

T1 sequence (P10415 whole entry): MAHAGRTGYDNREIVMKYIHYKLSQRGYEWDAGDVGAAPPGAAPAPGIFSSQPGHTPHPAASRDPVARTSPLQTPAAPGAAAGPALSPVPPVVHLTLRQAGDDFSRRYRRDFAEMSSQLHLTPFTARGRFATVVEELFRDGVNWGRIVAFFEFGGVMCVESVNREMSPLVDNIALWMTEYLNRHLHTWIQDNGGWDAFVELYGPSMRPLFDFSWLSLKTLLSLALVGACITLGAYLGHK

Take `Cn1ccc2cc(N(C(=O)c3cc(-c4cc5c(cc4C(=O)N4Cc6ccccc6C[C@H]4CCCN4CCOCC4)OCO5)n4c3CCCC4)c3ccc(O)cc3)cnc21` [Example 69, N-(4-Hydroxyphenyl)-N-(1-methyl-1H-pyrrolo[2,3-b]pyridin-5-yl)-3-(6-{[(3R)-3-[3-(morpholin-4-yl)propyl]-3,4-dihydroisoquinolin-2(1H)-yl]carbonyl}-1,3-benzodioxol-5-yl)-5,6,7,8-tetrahydroindolizine-1-carboxamide hydrochloride]: the IC50 (commonly the concentration that gives 50% inhibition) was 4.6 nM on Bcl-2 protein and 1.38 nM in test [1] (Homo sapiens).
Taken in the same sequence, the figures for `C[C@@H]1Cc2ccccc2CN1C(=O)c1cc2c(cc1-c1cc(C(=O)N(c3ccc(O)cc3)c3cnc4c(cnn4C)c3)c3ccccn13)OCO2` [Example 70, N-(4-Hydroxyphenyl)-3-(6-{[(3R)-3-methyl-3,4-dihydroisoquinolin-2(1,H)-yl]carbonyl]-1,3-benzodioxol-5-yl)-N-(1-methyl-1H-pyrazolo[3,4-b]pyridin-5-yl)indolizine-1-carboxamide] were 5.2 nM and 6.17 nM.
The corresponding values for `C[C@@H]1Cc2ccccc2CN1C(=O)c1cc2c(cc1-c1cc(C(=O)N(C)c3ccc(O)cc3)c3n1CCNC3)OCO2` [Example 72, N-(4-Hydroxyphenyl)-N-methyl-6-(6-{[(3R)-3-methyl-3,4-dihydroiso-quinolin-2(1H)-yl]carbonyl}-1,3-benzodioxol-5-yl)-1,2,3,4-tetrahydropyrrolo[1,2-a]-pyrazine-8-carboxamide] are 90.2 nM and 1520 nM.
Consider `CCN(C(=O)c1cc(-c2cc3c(cc2C(=O)N2Cc4ccccc4C[C@H]2C)OCO3)n2c1CNCC2)c1ccc(O)cc1` [Example 73, N-Ethyl-N-(4-hydroxyphenyl)-6-(6-{[(3R)-3-methyl-3,4-dihydroiso-quinolin-2(1H)-yl]carbonyl}-1,3-benzodioxol-5-yl)-1,2,3,4-tetrahydropyrrolo[1,2-a]-pyrazine-8-carboxamide], for which the IC50 was found to be 83.6 nM at Bcl-2 protein and 1320 nM in test [1] (Homo sapiens).
The corresponding values for `CN(C(=O)c1cc(-c2cc3c(cc2C(=O)N2CCc4ccccc4C2)OCO3)n2c1CCCC2)c1ccc(O)cc1` [Example 74, 3-[6-(3,4-Dihydroisoquinolin-2(1H)-ylcarbonyl)-1,3-benzodioxol-5-yl]-N-(4-hydroxyphenyl)-N-methyl-5,6,7,8-tetrahydroindolizine-1-carboxamide] are 68.7 nM and 1340 nM.
Consider `CCN(C(=O)c1cc(-c2cc3c(cc2C(=O)N2CCc4ccccc4C2)OCO3)n2c1CCCC2)c1ccc(O)cc1` [Example 75, 3-[6-(3,4-Dihydroisoquinolin-2(11)-ylcarbonyl)-1,3-benzodioxol-5-yl]-N-ethyl-N-(4-hydroxyphenyl)-5,6,7,8-tetrahydroindolizine-1-carboxamide], for which the IC50 on Bcl-2 protein turned out to be 67.7 nM; in test [1] (Homo sapiens), 1360 nM.
Taken in the same sequence, the figures for `CCCCN(C(=O)c1cc(-c2cc3c(cc2C(=O)N2CCc4ccccc4C2)OCO3)n2c1CCCC2)c1ccc(O)cc1` [Example 76, N-Butyl-3-[6-(3,4-dihydroisoquinolin-2(1H)-ylcarbonyl)-1,3-benzo-dioxol-5-yl]-N-(4-hydroxyphenyl)-5,6,7,8-tetrahydroindolizine-1-carboxamide] were 77.6 nM and 1630 nM.
Regarding `CCN(C(=O)c1cc(-c2cc3c(cc2C(=O)N2Cc4ccccc4C[C@@H]2C)OCO3)n2c1CNCC2)c1ccc(O)cc1` [Example 77, N-Ethyl-N-(4-hydroxyphenyl)-6-(6-{[(3S)-3-methyl-3,4-dihydroiso-quinolin-2(1H)-yl]carbonyl}-1,3-benzodioxol-5-yl)-1,2,3,4-tetrahydropyrrolo[1,2-a]-pyrazine-8-carboxamide], the “percentage fluorescence polarisation inhibition (partial inhibitors), Bcl-2 FP” value at Bcl-2 protein is given as 25.1% @ 10 μM. The midpoint of inhibition in test [1], the IC50, lay at 1880 nM.
For `CCCCN(CCCC)C(=O)c1cc(-c2cc3c(cc2C(=O)N2Cc4ccccc4C[C@H]2C)OCO3)n2c1CNCC2` [Example 78, N,N-Dibutyl-6-(6-{[(3R)-3-methyl-3,4-dihydroisoquinolin-2(1H)-yl]-carbonyl}-1,3-benzodioxol-5-yl)-1,2,3,4-tetrahydropyrrolo[1,2-a]pyrazine-8-carboxamide], the 50% inhibitory concentration (IC50) on Bcl-2 protein is 823 nM; in test [1] (Homo sapiens) it was 1880 nM.
Taken in the same sequence, the figures for `CCCCN(C(=O)c1cc(-c2cc3c(cc2C(=O)N2Cc4ccccc4C[C@H]2C)OCO3)n2c1CNCC2)c1ccc(O)cc1` [Example 79, N-Butyl-N-(4-hydroxyphenyl)-6-(6-{[(3R)-3-methyl-3,4-dihydroiso-quinolin-2(1H)-yl]carbonyl}-1,3-benzodioxol-5-yl)-1,2,3,4-tetrahydropyrrolo[1,2-a]-pyrazine-8-carboxamide] were 99.1 nM and 1010 nM.
Taken in the same sequence, the figures for `CC(C)N(C(=O)c1cc(-c2cc3c(cc2C(=O)N2Cc4ccccc4C[C@H]2C)OCO3)n2c1CNCC2)c1ccc(O)cc1` [Example 80, N-(4-Hydroxyphenyl)-6-(6-{[(3R)-3-methyl-3,4-dihydroisoquinolin-2(1H)-yl]carbonyl}-1,3-benzodioxol-5-yl)-N-(propan-2-yl)-1,2,3,4-tetrahydro-pyrrolo[1,2-a]pyrazine-8-carboxamide] were 299 nM and 1880 nM.
For the compound `C[C@@H]1Cc2ccccc2CN1C(=O)c1cc2c(cc1-c1cc(C(=O)N(C)c3ccc(O)cc3)c3n1CCCC3)OCO2` [Example 81, N-(4-Hydroxyphenyl)-N-methyl-3-(6-{[(3R)-3-methyl-3,4-dihydroiso-quinolin-2(1H)-yl]carbonyl}-1,3-benzodioxol-5-yl)-5,6,7,8-tetrahydroindolizine-1-carboxamide], the IC50 turned out to be 12.1 nM at Bcl-2 protein and 778 nM in test [1] (Homo sapiens).
Regarding `C[C@H]1Cc2ccccc2CN1C(=O)c1cc2c(cc1-c1cc(C(=O)N(C)c3ccc(O)cc3)c3n1CCCC3)OCO2` [Example 82, N-(4-Hydroxyphenyl)-N-methyl-3-(6-{[(3S)-3-methyl-3,4-dihydroiso-quinolin-2(1H)-yl]carbonyl}-1,3-benzodioxol-5-yl)-5,6,7,8-tetrahydroindolizine-1-carboxamide], on Bcl-2 protein, the “percentage fluorescence polarisation inhibition (partial inhibitors), Bcl-2 FP” value worked out at 42% @ 10 μM. The 50% inhibitory concentration (IC50) in test [1] turned out to be 1880 nM.
Turning to `CN(C(=O)c1cc(-c2cc3c(cc2C(=O)N2CCc4ccccc4C2)OCO3)n2ccccc12)c1ccc(O)cc1` [Example 83, 3-[6-(3,4-Dihydroisoquinolin-2(1H)-ylcarbonyl)-1,3-benzodioxol-5-yl]-N-(4-hydroxyphenyl)-N-methylindolizine-1-carboxamide], the IC50 at Bcl-2 protein was 35.8 nM; in test [1] (Homo sapiens) it was 1500 nM.
Regarding `Cc1cnn2cc(N(C(=O)c3cc(-c4cc5c(cc4C(=O)N4Cc6ccccc6C[C@H]4C)OCO5)n4ccccc34)c3ccc(O)cc3)cnc12` [Example 86, N-(4-Hydroxyphenyl)-3-[6-[(3R)-3-methyl-3,4-dihydro-1H-isoquinoline-2-carbonyl]-1,3-benzodioxol-5-yl]-N-(3-methylpyrazolo[1,5-a]pyrimidin-6-yl)-indolizine-1-carboxamide hydrochloride], the IC50 is 5 nM on Bcl-2 protein and 20.1 nM in test [1] (Homo sapiens).

The values above are taken from US10414754B2, “Indolizine compounds, a process for their preparation and pharmaceutical compositions containing them” (LES LABORATOIRES SERVIER, priority 2013, dated 2019).
